Results published in ChEMBL document CHEMBL1201862, “PubChem BioAssay data set” (2004).
Active and inactive are the calls of the source.

Columns and labels:
Coagulation factor XII = biological target: T1, Coagulation factor XII (Homo sapiens, UniProt P00748); type: functional;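 also: activated factor XIIa alpha cleaving a fluorogenic AMC peptide substrate; inhibitor potency from loss of enzyme activity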
T1 sequence (P00748 whole entry): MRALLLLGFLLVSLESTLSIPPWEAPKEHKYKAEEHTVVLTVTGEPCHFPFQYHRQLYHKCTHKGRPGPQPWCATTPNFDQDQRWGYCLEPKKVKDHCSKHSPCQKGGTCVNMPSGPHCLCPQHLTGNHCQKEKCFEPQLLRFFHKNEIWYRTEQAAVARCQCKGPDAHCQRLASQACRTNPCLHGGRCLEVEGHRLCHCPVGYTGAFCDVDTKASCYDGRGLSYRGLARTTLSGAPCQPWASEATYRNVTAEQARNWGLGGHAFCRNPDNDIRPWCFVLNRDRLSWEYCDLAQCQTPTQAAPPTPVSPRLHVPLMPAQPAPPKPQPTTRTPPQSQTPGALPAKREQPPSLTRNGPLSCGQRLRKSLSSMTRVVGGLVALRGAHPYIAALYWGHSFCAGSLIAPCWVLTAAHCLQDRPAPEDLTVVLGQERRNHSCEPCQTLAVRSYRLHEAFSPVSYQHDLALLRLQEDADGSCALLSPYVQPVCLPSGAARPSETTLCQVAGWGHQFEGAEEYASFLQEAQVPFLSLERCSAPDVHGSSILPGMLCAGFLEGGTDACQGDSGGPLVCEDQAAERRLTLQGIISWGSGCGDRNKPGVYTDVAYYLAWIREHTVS

[1] = biological target: DNA dC->dU-editing enzyme APOBEC-3G (Homo sapiens, UniProt Q9HC16); assay: APOBEC3G deaminase inhibitors, SAR follow-up, biochemical, fluorescence, single-stranded DNA substrate (AID 602136); type: functional; details: read-out: IC50_Mean
DNA dC->dU-editing enzyme APOBEC-3G, sequence (Q9HC16 whole entry): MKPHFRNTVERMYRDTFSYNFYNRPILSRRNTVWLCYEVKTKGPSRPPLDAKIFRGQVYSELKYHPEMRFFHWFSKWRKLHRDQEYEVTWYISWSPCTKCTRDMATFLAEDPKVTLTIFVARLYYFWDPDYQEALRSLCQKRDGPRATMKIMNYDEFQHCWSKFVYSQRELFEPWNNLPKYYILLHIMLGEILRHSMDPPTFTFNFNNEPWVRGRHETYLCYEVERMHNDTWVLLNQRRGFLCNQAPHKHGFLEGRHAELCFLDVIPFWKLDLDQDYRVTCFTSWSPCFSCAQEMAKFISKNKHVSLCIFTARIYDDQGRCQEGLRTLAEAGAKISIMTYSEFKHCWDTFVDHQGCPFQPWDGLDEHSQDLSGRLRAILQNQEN

[2] = biological target: DNA dC->dU-editing enzyme APOBEC-3A (Homo sapiens, UniProt P31941); assay: SAR analysis of small molecule inhibitors of APOBEC3A DNA Deaminase via a fluorescence-based single-stranded DNA deaminase assay.; type: functional; details: read-out: IC50_Mean
DNA dC->dU-editing enzyme APOBEC-3A, sequence (P31941 whole entry): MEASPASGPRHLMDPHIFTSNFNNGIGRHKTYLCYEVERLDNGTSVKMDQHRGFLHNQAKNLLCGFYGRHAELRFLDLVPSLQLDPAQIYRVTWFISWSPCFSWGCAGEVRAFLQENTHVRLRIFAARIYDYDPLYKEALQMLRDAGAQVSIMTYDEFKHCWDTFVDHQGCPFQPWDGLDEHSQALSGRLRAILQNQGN

[3] = biological target: T2, Rac GTPase-activating protein 1 (Homo sapiens, UniProt Q9H0H5); assay: MgcRacGAP GTPase-activating activity inhibitors, confirmation, biochemical, ADP Hunter fluorescence, primary and confirmatory (AID 624330); type: functional
T2 sequence (Q9H0H5 whole entry): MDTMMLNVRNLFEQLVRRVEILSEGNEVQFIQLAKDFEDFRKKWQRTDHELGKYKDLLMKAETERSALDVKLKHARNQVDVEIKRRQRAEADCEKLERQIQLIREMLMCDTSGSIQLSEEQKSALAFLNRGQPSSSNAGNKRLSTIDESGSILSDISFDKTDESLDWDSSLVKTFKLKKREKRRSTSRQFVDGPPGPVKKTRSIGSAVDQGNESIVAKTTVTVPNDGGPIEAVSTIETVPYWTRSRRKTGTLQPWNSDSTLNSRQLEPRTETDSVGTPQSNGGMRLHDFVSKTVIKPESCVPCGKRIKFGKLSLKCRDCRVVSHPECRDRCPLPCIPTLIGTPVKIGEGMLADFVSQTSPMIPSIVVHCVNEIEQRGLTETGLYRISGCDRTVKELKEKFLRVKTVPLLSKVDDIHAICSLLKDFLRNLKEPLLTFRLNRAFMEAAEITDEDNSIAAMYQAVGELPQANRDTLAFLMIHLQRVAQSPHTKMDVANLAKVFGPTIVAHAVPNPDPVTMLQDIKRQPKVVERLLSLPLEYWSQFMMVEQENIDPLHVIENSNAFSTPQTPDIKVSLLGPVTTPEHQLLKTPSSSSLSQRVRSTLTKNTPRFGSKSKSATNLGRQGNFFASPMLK

Cytochrome P450 3A4 = Cytochrome P450 3A4 (Homo sapiens, UniProt P08684); details: Potency;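 also: confirmatory qHTS run detecting inhibitors and substrates of CYP3A4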
Cytochrome P450 3A4, sequence (P08684 whole entry): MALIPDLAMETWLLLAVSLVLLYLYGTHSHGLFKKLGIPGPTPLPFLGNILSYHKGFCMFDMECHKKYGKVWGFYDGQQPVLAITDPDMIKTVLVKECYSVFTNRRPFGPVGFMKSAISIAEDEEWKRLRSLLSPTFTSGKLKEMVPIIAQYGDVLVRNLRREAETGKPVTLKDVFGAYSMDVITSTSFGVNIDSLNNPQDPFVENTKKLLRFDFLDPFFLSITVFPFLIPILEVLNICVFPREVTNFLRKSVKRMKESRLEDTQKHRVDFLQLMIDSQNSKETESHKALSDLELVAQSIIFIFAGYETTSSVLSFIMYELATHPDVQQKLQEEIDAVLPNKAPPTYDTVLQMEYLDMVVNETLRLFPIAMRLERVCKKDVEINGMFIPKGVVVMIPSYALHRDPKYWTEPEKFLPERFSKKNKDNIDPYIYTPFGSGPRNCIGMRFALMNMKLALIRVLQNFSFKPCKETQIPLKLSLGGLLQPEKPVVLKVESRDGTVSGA

[4] = biological target: Aryl hydrocarbon receptor (Homo sapiens, UniProt P35869); details: Potency;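 also: confirmatory quantitative high-throughput screen measuring activation of the AhR signaling pathway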
Aryl hydrocarbon receptor, sequence (P35869 whole entry): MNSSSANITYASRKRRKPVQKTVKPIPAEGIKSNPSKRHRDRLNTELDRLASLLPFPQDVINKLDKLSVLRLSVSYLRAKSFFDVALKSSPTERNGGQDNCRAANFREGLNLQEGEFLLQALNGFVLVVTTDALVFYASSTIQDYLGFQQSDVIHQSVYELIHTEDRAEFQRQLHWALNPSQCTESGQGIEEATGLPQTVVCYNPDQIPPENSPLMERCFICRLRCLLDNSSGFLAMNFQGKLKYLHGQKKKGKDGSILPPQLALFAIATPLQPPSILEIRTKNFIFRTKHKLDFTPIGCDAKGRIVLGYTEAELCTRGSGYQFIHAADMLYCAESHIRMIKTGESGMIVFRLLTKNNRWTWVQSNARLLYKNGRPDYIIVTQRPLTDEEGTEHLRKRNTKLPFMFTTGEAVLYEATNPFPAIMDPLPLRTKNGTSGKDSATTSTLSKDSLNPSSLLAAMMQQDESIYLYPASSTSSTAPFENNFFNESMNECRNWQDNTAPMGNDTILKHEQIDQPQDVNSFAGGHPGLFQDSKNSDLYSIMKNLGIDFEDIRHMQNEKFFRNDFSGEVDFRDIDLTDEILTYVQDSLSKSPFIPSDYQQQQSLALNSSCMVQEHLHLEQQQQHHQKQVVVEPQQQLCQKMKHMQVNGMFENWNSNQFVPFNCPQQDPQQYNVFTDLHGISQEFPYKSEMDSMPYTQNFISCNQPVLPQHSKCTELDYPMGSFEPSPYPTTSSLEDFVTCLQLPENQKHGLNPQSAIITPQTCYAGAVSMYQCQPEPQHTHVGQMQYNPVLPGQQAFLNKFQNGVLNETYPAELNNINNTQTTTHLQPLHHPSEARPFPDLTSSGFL

[5] = THP-1 cell cytotoxicity, cytotoxicity control, set 4 (AID 504911); type: functional; details: Mycobacterium tuberculosis
Vero = assay: cells; type: functional; details: Chlorocebus sabaeus
Melanocortin receptor 4 = Melanocortin receptor 4 (Homo sapiens, UniProt P32245); assay: MC4R antagonist potency on cAMP, dose response, cell-based, TR-FRET, biased antagonists (AID 602298); type: functional;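 also: antagonist potency against agonist-stimulated cAMP production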
Melanocortin receptor 4, sequence (P32245 whole entry): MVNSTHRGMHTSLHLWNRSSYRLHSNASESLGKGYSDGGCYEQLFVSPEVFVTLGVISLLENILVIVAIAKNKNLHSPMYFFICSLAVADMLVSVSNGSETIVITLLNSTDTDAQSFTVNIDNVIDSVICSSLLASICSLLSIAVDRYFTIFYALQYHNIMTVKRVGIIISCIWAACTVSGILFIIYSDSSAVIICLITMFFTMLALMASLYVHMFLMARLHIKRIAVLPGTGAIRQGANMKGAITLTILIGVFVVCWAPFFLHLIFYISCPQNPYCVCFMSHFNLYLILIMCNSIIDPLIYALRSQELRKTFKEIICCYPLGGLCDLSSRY

[6] = nonselective inhibitors of cellular cAMP signaling, dose response, counter-screen for MC4R biased antagonist project, cell-based, TR-FRET cAMP detection (AID 602305); type: functional;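 also: U2OS cells stimulated with forskolin near its EC80 as the cAMP inducer; potency is for inhibition of forskolin-stimulated cAMP signaling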
[7] = biological target: T3, Short transient receptor potential channel 4 (Mus musculus, UniProt Q9QUQ5); assay: mouse TRPC4 channel inhibitors, dose response, cell-based, HEK293 TRPC4/mu-opioid, Fluo-4 calcium (AID 434942); type: functional;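 also: potency of inhibitors blocking the TRPC4 calcium response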
T3 sequence (Q9QUQ5 whole entry): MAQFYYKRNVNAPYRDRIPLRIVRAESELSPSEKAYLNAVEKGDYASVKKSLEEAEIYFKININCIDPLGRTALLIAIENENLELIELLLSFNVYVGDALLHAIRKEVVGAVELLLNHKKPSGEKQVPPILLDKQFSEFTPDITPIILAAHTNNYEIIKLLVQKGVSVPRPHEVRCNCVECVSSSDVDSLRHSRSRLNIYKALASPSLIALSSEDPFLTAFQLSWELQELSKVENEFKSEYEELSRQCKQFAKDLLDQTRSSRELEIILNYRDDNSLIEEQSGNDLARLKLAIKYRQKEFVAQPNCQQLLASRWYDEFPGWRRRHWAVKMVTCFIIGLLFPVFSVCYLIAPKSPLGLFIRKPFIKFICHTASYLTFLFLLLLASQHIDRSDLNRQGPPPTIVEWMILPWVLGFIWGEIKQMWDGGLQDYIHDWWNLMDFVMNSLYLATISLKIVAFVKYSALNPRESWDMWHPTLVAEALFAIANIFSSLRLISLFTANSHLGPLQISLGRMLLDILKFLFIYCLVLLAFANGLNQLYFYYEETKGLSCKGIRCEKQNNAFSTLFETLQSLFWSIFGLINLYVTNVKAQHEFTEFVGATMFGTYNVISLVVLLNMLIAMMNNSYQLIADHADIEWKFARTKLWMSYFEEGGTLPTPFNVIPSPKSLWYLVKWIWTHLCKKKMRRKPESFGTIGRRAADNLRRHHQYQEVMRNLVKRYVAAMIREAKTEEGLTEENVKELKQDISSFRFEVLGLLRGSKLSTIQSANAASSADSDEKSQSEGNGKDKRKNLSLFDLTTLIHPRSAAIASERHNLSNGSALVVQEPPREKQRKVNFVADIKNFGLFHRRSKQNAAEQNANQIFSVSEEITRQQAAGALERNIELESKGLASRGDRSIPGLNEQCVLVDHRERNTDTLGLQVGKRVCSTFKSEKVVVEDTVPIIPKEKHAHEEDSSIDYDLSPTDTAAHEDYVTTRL

[8] = biological target: Dual specificity tyrosine-phosphorylation-regulated kinase 1A (Rattus norvegicus, UniProt Q63470); type: biochemical, Homo sapiens
[9] = biological target: T4, Low molecular weight phosphotyrosine protein phosphatase (Homo sapiens, UniProt P24666); type: functional; details: read-out: IC50_Mean
T4 sequence (P24666 whole entry): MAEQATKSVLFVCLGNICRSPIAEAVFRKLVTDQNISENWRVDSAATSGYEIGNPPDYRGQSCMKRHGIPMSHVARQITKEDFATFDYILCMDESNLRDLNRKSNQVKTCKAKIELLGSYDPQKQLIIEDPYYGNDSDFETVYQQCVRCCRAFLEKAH

[10] = biological target: T4, Low molecular weight phosphotyrosine protein phosphatase; type: functional; details: read-out: IC50_Mean; remark: listed apart in the source
[11] = biological target: T5, Tyrosine-protein phosphatase non-receptor type 22 (Homo sapiens, UniProt Q9Y2R2); assay: LYP phosphatase inhibition for selectivity, dose response, selectivity assay for LMPTP inhibitor project, biochemical, fluorescence, LYP catalytic domain (AID 652006); type: functional; details: read-out: IC50_Mean
T5 sequence (Q9Y2R2 whole entry): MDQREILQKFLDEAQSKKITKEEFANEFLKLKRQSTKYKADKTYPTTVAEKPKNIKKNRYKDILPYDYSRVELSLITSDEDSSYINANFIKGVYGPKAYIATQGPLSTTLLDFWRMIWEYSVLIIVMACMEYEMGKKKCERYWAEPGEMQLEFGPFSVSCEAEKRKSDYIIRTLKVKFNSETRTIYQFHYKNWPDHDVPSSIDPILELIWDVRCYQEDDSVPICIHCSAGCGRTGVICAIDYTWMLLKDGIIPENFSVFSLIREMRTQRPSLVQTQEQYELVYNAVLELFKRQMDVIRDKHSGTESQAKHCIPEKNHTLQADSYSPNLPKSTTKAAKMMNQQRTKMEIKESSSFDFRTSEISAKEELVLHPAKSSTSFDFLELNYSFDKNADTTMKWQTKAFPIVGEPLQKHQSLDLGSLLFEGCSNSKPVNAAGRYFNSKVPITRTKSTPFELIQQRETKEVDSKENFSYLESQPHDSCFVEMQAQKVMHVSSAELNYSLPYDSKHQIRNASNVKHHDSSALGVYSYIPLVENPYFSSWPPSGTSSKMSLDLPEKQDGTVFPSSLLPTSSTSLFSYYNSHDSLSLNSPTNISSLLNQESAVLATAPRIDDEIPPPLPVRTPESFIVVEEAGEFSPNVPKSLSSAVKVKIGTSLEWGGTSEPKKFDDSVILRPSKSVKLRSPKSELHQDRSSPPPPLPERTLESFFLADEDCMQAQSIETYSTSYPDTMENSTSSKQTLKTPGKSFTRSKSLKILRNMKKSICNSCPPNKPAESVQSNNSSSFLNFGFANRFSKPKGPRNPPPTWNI

[12] = biological target: T6, Corticotropin-releasing factor receptor 2/Corticotropin-releasing factor-binding protein (Homo sapiens, UniProt P24387+Q13324); assay: Dose Response confirmation of uHTS hits for small molecule antagonists of the CRF-binding protein and CRF-R2 receptor complex.; type: functional; details: read-out: IC50_Mean
T6 sequence (Q13324 whole entry): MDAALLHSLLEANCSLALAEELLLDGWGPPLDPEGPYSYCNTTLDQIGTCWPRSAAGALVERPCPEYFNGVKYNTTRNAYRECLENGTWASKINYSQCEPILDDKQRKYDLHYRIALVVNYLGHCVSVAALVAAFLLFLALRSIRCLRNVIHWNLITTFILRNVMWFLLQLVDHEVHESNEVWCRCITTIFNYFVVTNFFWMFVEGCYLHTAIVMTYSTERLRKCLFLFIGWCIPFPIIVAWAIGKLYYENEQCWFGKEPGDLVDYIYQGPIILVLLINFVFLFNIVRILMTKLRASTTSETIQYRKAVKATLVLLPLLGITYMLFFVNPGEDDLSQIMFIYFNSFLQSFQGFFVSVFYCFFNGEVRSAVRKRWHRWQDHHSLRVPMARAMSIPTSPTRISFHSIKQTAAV
T6 sequence (P24387 whole entry): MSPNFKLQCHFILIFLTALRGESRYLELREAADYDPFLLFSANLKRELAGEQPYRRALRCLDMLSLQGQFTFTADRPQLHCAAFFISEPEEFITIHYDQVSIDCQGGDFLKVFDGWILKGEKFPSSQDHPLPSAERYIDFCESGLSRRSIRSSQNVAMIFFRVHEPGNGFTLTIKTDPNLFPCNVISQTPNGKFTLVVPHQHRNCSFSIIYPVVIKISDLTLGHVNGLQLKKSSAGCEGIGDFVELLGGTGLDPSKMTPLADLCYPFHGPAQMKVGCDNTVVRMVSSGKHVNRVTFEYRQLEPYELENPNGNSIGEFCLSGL

[13] = biological target: T6, Corticotropin-releasing factor receptor 2/Corticotropin-releasing factor-binding protein; assay: activators of CRF receptor 2 with binding protein – uHTS hits, confirmation (AID 602473); type: functional; details: read-out: EC50_Mean
[14] = CRF-BP/CRF-R2 complex antagonists, dose response, cell-based, uHTS hits, 384-well (AID 651639); type: functional, Homo sapiens; details: read-out: IC50_Mean
[15] = biological target: T7, Probable nicotinate-nucleotide adenylyltransferase (Staphylococcus aureus (strain N315), UniProt P65502); type: functional, Staphylococcus aureus subsp. aureus N315;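 as to IC50 Mean: confirmatory dose-response retesting of NadD inhibitor hits first found in an ultra-high-throughput screen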
T7 sequence (P65502 whole entry): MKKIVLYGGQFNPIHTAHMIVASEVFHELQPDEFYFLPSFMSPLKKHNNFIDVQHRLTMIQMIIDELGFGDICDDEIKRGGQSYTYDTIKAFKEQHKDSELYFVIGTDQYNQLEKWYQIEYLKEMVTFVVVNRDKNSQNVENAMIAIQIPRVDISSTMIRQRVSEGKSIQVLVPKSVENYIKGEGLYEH

[16] = biological target: T7, Probable nicotinate-nucleotide adenylyltransferase; type: functional, Staphylococcus aureus subsp. aureus N315; details: read-out: IC50_Mean
Genome polyprotein = Genome polyprotein (dengue virus type 2, UniProt P29990); assay: Dengue-2 NS5 methyltransferase inhibitors, primary screen, biochemical, confirmation dose response (AID 588689); type: functional
Genome polyprotein, sequence (P29990 2492-3391 limits assumed): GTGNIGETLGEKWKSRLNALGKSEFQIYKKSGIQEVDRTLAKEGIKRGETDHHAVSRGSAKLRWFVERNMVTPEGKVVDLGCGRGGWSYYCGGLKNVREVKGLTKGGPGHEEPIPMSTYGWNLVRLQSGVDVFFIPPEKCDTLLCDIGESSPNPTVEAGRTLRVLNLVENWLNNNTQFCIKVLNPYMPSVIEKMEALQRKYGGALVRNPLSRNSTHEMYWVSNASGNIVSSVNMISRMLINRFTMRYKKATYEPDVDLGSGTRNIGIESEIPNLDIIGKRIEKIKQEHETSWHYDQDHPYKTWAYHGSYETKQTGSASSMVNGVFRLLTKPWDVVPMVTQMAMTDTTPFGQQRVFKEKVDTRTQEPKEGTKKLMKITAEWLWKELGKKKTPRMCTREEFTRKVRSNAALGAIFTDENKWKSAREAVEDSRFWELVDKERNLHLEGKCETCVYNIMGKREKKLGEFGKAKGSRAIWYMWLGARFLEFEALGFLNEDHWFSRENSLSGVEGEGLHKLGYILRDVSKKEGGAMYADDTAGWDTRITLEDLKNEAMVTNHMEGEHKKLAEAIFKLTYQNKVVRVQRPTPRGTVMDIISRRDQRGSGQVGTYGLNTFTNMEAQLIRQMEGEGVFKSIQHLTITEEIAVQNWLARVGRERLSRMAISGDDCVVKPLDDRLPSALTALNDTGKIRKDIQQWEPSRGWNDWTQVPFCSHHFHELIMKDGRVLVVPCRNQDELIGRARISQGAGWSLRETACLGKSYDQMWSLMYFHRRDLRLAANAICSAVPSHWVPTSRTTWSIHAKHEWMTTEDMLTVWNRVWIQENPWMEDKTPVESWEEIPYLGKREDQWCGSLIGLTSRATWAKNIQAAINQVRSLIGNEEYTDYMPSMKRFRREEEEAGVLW

[17] = biological target: T8, Polyadenylate-binding protein 1 (Homo sapiens, UniProt P11940); assay: PABP1 MLLE–PAM2 interaction inhibitors, dose response, miRNA deadenylation inhibitor project, biochemical, fluorescence polarization, Cy5-PAM2 peptide, secondary (AID 602260); type: functional; details: read-out: IC50_Mean
T8 sequence (P11940 whole entry): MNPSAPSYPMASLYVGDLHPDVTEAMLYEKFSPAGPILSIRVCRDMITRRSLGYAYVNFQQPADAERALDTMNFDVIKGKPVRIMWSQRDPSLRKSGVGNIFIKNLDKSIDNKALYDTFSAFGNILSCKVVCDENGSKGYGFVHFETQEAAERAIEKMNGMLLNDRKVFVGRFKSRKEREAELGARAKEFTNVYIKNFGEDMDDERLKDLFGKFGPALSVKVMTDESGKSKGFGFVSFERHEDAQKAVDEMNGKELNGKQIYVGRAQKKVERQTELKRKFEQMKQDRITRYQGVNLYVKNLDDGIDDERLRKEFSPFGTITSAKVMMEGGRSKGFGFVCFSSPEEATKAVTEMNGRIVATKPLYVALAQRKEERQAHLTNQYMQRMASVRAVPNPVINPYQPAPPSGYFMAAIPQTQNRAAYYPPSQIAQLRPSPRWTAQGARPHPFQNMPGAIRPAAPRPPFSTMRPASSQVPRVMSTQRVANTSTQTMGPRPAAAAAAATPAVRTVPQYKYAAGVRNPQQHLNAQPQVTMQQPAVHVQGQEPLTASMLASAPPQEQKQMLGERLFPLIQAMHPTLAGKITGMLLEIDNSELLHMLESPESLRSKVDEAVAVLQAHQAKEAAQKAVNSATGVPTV

[18] = biological target: Mitochondrial peptide methionine sulfoxide reductase (Bos taurus, UniProt P54149); assay: Absorbance-based biochemical high throughput dose response assay for activators of Methionine sulfoxide reductase A (MsrA).; type: functional
Mitochondrial peptide methionine sulfoxide reductase, sequence (P54149 whole entry): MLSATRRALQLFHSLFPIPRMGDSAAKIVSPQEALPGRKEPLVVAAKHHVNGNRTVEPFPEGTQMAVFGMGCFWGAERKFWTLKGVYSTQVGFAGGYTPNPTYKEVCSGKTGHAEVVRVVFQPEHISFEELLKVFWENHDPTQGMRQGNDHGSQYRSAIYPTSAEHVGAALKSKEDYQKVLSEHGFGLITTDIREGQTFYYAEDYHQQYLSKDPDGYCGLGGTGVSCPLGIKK

[19] = biological target: T8, Polyadenylate-binding protein 1; assay: PABP1 MLLE–PAM2 binding inhibitor potency, dose response, biochemical, fluorescence polarization, FITC-PAM2 peptide (AID 602259); type: functional; details: read-out: IC50_Mean

With `O=C(CNCc1ccccn1)Nc1cc(C(F)(F)F)ccc1N1CCOCC1` the IC50 (Coagulation factor XII) was > 50 µM (inactive), the IC50 [1] was > 99 µM (inactive) and the IC50 [2] was > 99 µM (inactive). The IC50 [3] was 138 µM (active).

With `COc1ccc2nc(N)sc2c1` the AC50 (Cytochrome P450 3A4) was 31.6 µM (inconclusive) and the AC50 [4] was 44.7 µM (inconclusive).

For `COc1cccc(NC(=O)CSc2nc3c(c(=O)[nH]2)CCC3)c1`, the CC50 [5] was > 100 µM (active).

With `COC(=O)C=C1CCC2C3CCC4=CC(=O)C(Br)CC4(C)C3C(=O)CC12C` (centres undefined) the CC50 (Vero) was > 25 µM (active), the IC50 (Melanocortin receptor 4) was > 64.6 µM (inactive) and the IC50 [6] was > 64.6 µM (inactive).

In the case of `Cc1cc(N2CCC(C)CC2)nc2cccc(O)c12`, the EC50 [7] is reported as 0.335 µM (active), the AC50 [8] is reported as 14.3 µM (active) and the IC50 [9] is reported as 9.87 µM (active). The IC50 [10] was 13.2 µM (active) and the IC50 [11] was 80 µM (inactive).

In the case of `CC(=O)NC(Cc1ccc(C)cc1)C(=O)NC1CCN(c2ncccc2[N+](=O)[O-])CC1` (centres undefined), the IC50 [12] is reported as 2.09 µM (active), the EC50 [13] is reported as > 53 µM (inactive) and the IC50 [14] is reported as 5.07 µM (active).

With `Nc1[nH]c(C(=O)c2ccccc2)c(-c2ccccc2Br)c1C(=O)NCc1ccc(-c2ccccc2)cc1` the IC50 [15] was 26.5 µM (active) and the IC50 [16] was 65.9 µM (active).

For `O=C1c2ccccc2C(=O)c2c(/C=C/N3CCCCC3)ccnc21`, the IC50 (Genome polyprotein) was 61.6 µM (active), the IC50 [17] was > 66 µM (inactive) and the EC50 [18] was > 104 µM (inactive). For the same molecule, the IC50 [19] was 50.2 µM (inactive).
